Laboratory results as given in patent US6605639B1, “Ligands of nuclear receptor” (Nuclear Receptor Research, Ltd., priority 1998, dated 2003).
≈ marks a conversion by molar mass, not a printed value. Where “and” joins values, the source holds several entries; their conditions need not be identical. Equal entries are not always repeated.

Experiments:
[1] = system: rats given streptozotocin; assay: Relief of onset of streptozotocin-induced diabetes; assay type: in vivo, rat; settings: male Wistar rats, streptozotocin 45 mg/kg i.v.; 20 mg/kg/day oral, 10 days; Mean ± SE
Procedure: Eighteen male Wistar rats weighing about 200 g were divided into 3 groups at random. To the animals of 2 groups, 45 mg/kg of streptozotocin was intravenously administered. One of these groups was regarded as a control group, while the other was regarded as the Compound-6 administration group. To the remaining 1 group which was regarded as the normal control group, a 1/10 M citrate buffer (pH 3.5) […] was intravenously administered. Immediately after the administration of streptozotocin, a suspension of Compound-6 in acacia was orally administered once a day continuously for 10 days in a dose of 20 mg/kg/day. To other groups, an acacia solution alone was administered. After fasting for 6 hours after the final administration, blood was collected from the heart of each animal and the blood glucose level and the blood insulin level were measured. As the data given in Table 7a show, the oral administration of Compound-6 inhibited an increase in the blood glucose level and a decrease in the blood insulin level.
Eighteen male SD rats weighing about 250 g were divided into 3 groups at random. […] To the normal control group and the streptozotocin control group, the acacia solution alone was administered orally. After fasting for 6 hours after the final administration, blood was collected from the heart of each animal and the blood glucose level and the blood insulin level were measured. As the data given in Table 7b show, the oral administration of Compound-5 inhibited an increase in the blood glucose level and a decrease in the blood insulin level.

DOCA hypertensive rats = assay: Aneurysm formation in the mesenteric artery of DOCA hypertensive rats; assay type: in vivo, rat; design: Lesion index, individual rats / Lesion index, Avg: scale not given here; settings: for Appearance frequency (node count/arteriole count×100), individual rats / Lesion index, individual rats / Appearance frequency, Avg / Lesion index, Avg / Node count, Avg / Node count, individual rats: 7 weeks; for Appearance frequency, Avg / Lesion index, Avg / Node count, Avg: 6 rats; for Node count, individual rats: counted thrice, average
Excerpt: The compounds of the present invention show an effect of inhibiting periarteritis nodosa in a malignant hypertension model rat in which periarteritis nodosa arises in the mesenteric artery and progresses into aneurysm. Among aneurysms, those formed in the mesenteric artery can be treated quantitatively. Thus, the mesenteric artery was taken out and fixed with formalin. Then it was fat-stained and arterioles and aneurysms were counted thrice and the average aneurysm count per arteriole was calculated. To rats with renal hypofunction due to the excision of one kidney, […] saline, having a somewhat higher osmotic pressure than plasma, was given as drinking water and 10 mg/kg of deoxycorticosterone acetate (DOCA) (a mineral corticoid) was subcutaneously administered at intervals of 1 week. Twenty-four male Wistar rats were divided into 4 groups at random. After taking out the left kidney, each animal was allowed to stand and the operative wound was fused. […] The experiment was carried out for 7 weeks. Since the initiation of the experiment, the feed intake, water intake, urine, body weight and blood pressure of each group were measured once every three days.
The average blood pressure exceeded 180 mmHg in the 3rd week and attained 200 mmHg in the 4th week. […] In the 7th week, each animal was dissected and the mesenteric artery was taken out. After treating with formalin, the artery was fat-stained and aneurysms were counted. […] In the high-dose Compound-6 group, the average aneurysm count per arteriole was lowered to 0.27±0.05.
Arterioles and nodes in the mesenteric artery were each counted thrice and the average was calculated.
a) Appearance frequency=node count/arteriole count×100 (%).

Solubility = assay type: physicochemical
Procedure: Subsequently, Compound-6 was added to the serum to examine the formation of a Schiff base in vitro. […] When Compound-6 dissolved in dimethyl sulfoxide at a high concentration was added in portions to bovine serum, Compound-6 was dissolved in the serum at a ratio of […] (i.e., 1000-fold) and the serum turned yellow depending on the concentration of Compound-6. When an organic solvent (ethanol, acetonitrile, etc.) was added to this yellow serum, the coloring matter was not dissolved in the organic solvent but precipitated as yellow serum protein. The organic solvent layer contained no Compound-6. However, Compound-6 was quantitatively recovered as an acetonitrile solution by adding acetonitrile containing 1% of acetic acid to this yellow precipitate and allowing the mixture to stand for 1 week. In a reaction between a protein and a drug molecule, there has been taken no consideration into the conversion into a novel compound via the formation of a covalent bond between the drug and serum protein in vivo. However, it is obvious that aldehyde group in the benzene ring of the compounds of the present invention and amino group of serum protein form a Schiff base on the basis of the following facts. (1) The compounds of the present invention cannot be detected by any usual methods from the serum of animals to which the compounds have been administered. (2) The compounds of the present invention are released by adding an acidified organic solvent in a large amount to the serum and allowing to stand at room temperature for about 1 week. (3) When added to serum in vitro, the compounds of the present invention are dissolved at a ratio as high as 1000-fold and can be recovered by the same method as used in recovering the compounds of the present invention from the serum of animals to which the compounds have been administered. (4) The serum of animals, to which the compounds have been administered, or serum containing the compounds of the present invention turns into yellow.

db/db mice = settings: oral; cited from earlier work

| Compound | Blood glucose [1] | Serum IRI [1] | Appearance frequency (node count/arteriole count×100), individual rats (DOCA hypertensive rats; 10 mg/kg/day) | Lesion index, individual rats (DOCA hypertensive rats; 10 mg/kg/day) | Appearance frequency, Avg (DOCA hypertensive rats; 10 mg/kg/day) | Lesion index, Avg (DOCA hypertensive rats; 10 mg/kg/day) | Node count, Avg (DOCA hypertensive rats; 10 mg/kg/day) | Node count, individual rats (DOCA hypertensive rats; 10 mg/kg/day) | Appearance frequency (node count/arteriole count×100), individual rats (DOCA hypertensive rats; 40 mg/kg/day) | Lesion index, individual rats (DOCA hypertensive rats; 40 mg/kg/day) | Appearance frequency, Avg (DOCA hypertensive rats; 40 mg/kg/day) | Lesion index, Avg (DOCA hypertensive rats; 40 mg/kg/day) | Node count, Avg (DOCA hypertensive rats; 40 mg/kg/day) | Node count, individual rats (DOCA hypertensive rats; 40 mg/kg/day) | average aneurysm count per arteriole (DOCA hypertensive rats; high-dose group (40 mg/kg/day), 7th week) | aneurysms per arteriole on average (DOCA hypertensive rats; low-dose group (10 mg/kg/day), 7th week) | dissolved in bovine serum at a ratio of (Solubility; added in portions from dimethyl sulfoxide solution) | solubility in serum relative to PBS (Solubility; bovine serum) | solubility (Solubility; phosphate buffer saline (PBS)) | blood glucose level, serum lipid level and serum insulin level (db/db mice) |
| --- | --- | --- | --- | --- | --- | --- | --- | --- | --- | --- | --- | --- | --- | --- | --- | --- | --- | --- | --- | --- |
| COc1c(Cl)c(C)c(C=O)c(O)c1C/C=C(C)/C=C/[C@@]1(C)[C@H](C)CCC(=O)[C@@H]1C [Compound-6, 4-O-methylASC] | 277.2 ± 52.44 mg/dL | 12.3 ± 1.65 mU/ml | 25.89% and 20.56% and 27.27% and 274.91% and 33.35% and 15.00% | 1 (5×) and 4 | 66.16 ± 41.83% | 1.50 ± 0.50 | 9.27 | 2.33 (2×) and 3.00 and 40.33 and 5.67 and 2.00 | 7.89% and 3.19% and 16.67% and 36.59% and 25.62% and 28.87% | 1 | 26.57 ± 5.24 % | 1.00 ± 0.00 | 2.67 | 1.00 and 0.33 and 2.00 and 5.00 and 3.33 and 4.33 | 0.27±0.05 | 0.66±0.41 | 800 µg/mL | 1000 fold | 0.8 µg/mL (≈ 1.91 µM) |  |
| CC(/C=C/[C@@]1(C)[C@H](C)CCC(=O)[C@@H]1C)=C\Cc1c(O)c(C=O)c(C)c(Cl)c1OCC(=O)O [Compound-14, 4-O-carboxymethylASC] |  |  |  |  |  |  |  |  |  |  |  |  |  |  |  |  |  |  |  | significantly lowered |
